Results from PMC3075623 (2011).

Biological target: T1, ABL2 (ABL-related gene, ARG) (Homo sapiens, UniProt P42684)
T1 sequence (P42684 279-546): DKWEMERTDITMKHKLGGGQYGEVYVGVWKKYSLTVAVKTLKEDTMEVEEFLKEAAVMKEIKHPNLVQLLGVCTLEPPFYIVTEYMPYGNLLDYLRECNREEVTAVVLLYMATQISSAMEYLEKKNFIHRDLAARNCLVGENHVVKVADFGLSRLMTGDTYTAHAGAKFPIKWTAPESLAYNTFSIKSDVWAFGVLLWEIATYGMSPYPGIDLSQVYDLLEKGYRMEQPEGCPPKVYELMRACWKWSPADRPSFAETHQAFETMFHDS
Test: cocrystal structure
Assay type: binding

## Nc1nc(Nc2ccc(S(N)(=O)=O)cc2)nn1C(=S)Nc1c(F)cccc1F [compound 2, 5-amino-3-((4-(aminosulfonyl)phenyl)amino)-N-(2,6-difluorophenyl)-1H-1,2,4-triazole-1-carbothioamide]
  cocrystal structure: The ligand is bound to the protein by hydrogen bonds to the backbone carbonyls of residues Glu362 and Met364
